Test results from ChEMBL document CHEMBL3885881, “DrugMatrix”.

Species on record: Rattus norvegicus
Assay: DrugMatrix - Regimen: Daily Repeat
Type: toxicity, organism-based, Sprague-Dawley
Set-up: regimen Daily Repeat, gender Male, age 6-8 weeks
Conditions: in vivo, po, route oral GAVAGE, […]; for BASOPHIL / EOSINOPHIL / ERYTHROCYTE COUNT / HEMATOCRIT / HEMOGLOBIN / LEUKOCYTE COUNT / LYMPHOCYTE / MEAN CORPUSCULAR HEMOGLOBIN / MEAN CORPUSCULAR HEMOGLOBIN CONCENTRATION / MEAN CORPUSCULAR VOLUME / MONOCYTE / NEUTROPHIL / PLATELET COUNT: tissue Blood; for ALANINE AMINOTRANSFERASE / ALBUMIN / ALKALINE PHOSPHATASE / ASPARTATE AMINOTRANSFERASE / BLOOD UREA NITROGEN / CARBON DIOXIDE / CHLORIDE / CHOLESTEROL / CREATINE PHOSPHOKINASE / CREATININE / GLUCOSE / LACTATE DEHYDROGENASE / LIPASE / PHOSPHORUS / POTASSIUM / SODIUM / TOTAL BILIRUBIN / TOTAL PROTEIN / URIC ACID: tissue Plasma
[1] = 100 mg/kg, 72 h, dose level Low, time 3 day
[2] = 100 mg/kg, 120 h, dose level Low, time 5 day
[3] = 1200 mg/kg, 72 h, dose level High, time 3 day
[4] = 1200 mg/kg, 120 h, dose level High, time 5 day

Cc1c(C)c2c(c(C)c1O)CCC(C)(COc1ccc(CC3SC(=O)NC3=O)cc1)O2 (stereo not drawn) [TROGLITAZONE]
BASOPHIL [1]: 0% | EOSINOPHIL [1]: 1% | ERYTHROCYTE COUNT [1]: 6.97 x10E6/uL | HEMATOCRIT [1]: 42.83% | HEMOGLOBIN [1]: 14.33 G/DL | LEUKOCYTE COUNT [1]: 7.7 x10E3/uL | LYMPHOCYTE [1]: 77.67% | MEAN CORPUSCULAR HEMOGLOBIN [1]: 20.57 pg | MEAN CORPUSCULAR HEMOGLOBIN CONCENTRATION [1]: 33.5 G/DL | MEAN CORPUSCULAR VOLUME [1]: 61.4 fL | MONOCYTE [1]: 3% | NEUTROPHIL [1]: 18.33% | PLATELET COUNT [1]: 1143 x10E3/uL | ALANINE AMINOTRANSFERASE [1]: 57.67 u/L | ALBUMIN [1]: 4.33 G/DL | ALKALINE PHOSPHATASE [1]: 396.67 u/L | ASPARTATE AMINOTRANSFERASE [1]: 112.67 u/L | BLOOD UREA NITROGEN [1]: 14.67 mg/dL | CARBON DIOXIDE [1]: 24.67 mmol/L | CHLORIDE [1]: 103.33 MEQ/L | CHOLESTEROL [1]: 74.67 mg/dL | CREATINE PHOSPHOKINASE [1]: 585.67 u/L | CREATININE [1]: 0.3 mg/dL | GLUCOSE [1]: 141 mg/dL | LACTATE DEHYDROGENASE [1]: 938.33 u/L | LIPASE [1]: 10 u/L | PHOSPHORUS [1]: 8.83 mg/dL | POTASSIUM [1]: 5.6 MEQ/L | SODIUM [1]: 144.33 MEQ/L | TOTAL BILIRUBIN [1]: 0.1 mg/dL | TOTAL PROTEIN [1]: 5.83 G/DL | URIC ACID [1]: 1.2 mg/dL | BASOPHIL [2]: 0.33% | EOSINOPHIL [2]: 0.67% | ERYTHROCYTE COUNT [2]: 7.13 x10E6/uL | HEMATOCRIT [2]: 43.8% | HEMOGLOBIN [2]: 14.4 G/DL | LEUKOCYTE COUNT [2]: 13.53 x10E3/uL | LYMPHOCYTE [2]: 82.33% | MEAN CORPUSCULAR HEMOGLOBIN [2]: 20.2 pg | MEAN CORPUSCULAR HEMOGLOBIN CONCENTRATION [2]: 32.87 G/DL | MEAN CORPUSCULAR VOLUME [2]: 61.5 fL | MONOCYTE [2]: 1.67% | NEUTROPHIL [2]: 15.67% | PLATELET COUNT [2]: 873.33 x10E3/uL | ALANINE AMINOTRANSFERASE [2]: 66.67 u/L | ALBUMIN [2]: 4.27 G/DL | ALKALINE PHOSPHATASE [2]: 446.67 u/L | ASPARTATE AMINOTRANSFERASE [2]: 84.33 u/L | BLOOD UREA NITROGEN [2]: 15 mg/dL | CARBON DIOXIDE [2]: 23.67 mmol/L | CHLORIDE [2]: 99.67 MEQ/L | CHOLESTEROL [2]: 63.67 mg/dL | CREATINE PHOSPHOKINASE [2]: 419.67 u/L | CREATININE [2]: 0.3 mg/dL | GLUCOSE [2]: 149 mg/dL | LACTATE DEHYDROGENASE [2]: 313.33 u/L | LIPASE [2]: 9.33 u/L | PHOSPHORUS [2]: 9.73 mg/dL | POTASSIUM [2]: 5.57 MEQ/L | SODIUM [2]: 139.67 MEQ/L | TOTAL BILIRUBIN [2]: 0.0667 mg/dL | TOTAL PROTEIN [2]: 5.8 G/DL | URIC ACID [2]: 0.87 mg/dL | BASOPHIL [3]: 0% | EOSINOPHIL [3]: 1% | ERYTHROCYTE COUNT [3]: 7.21 x10E6/uL | HEMATOCRIT [3]: 43.6% | HEMOGLOBIN [3]: 14.63 G/DL | LEUKOCYTE COUNT [3]: 6.47 x10E3/uL | LYMPHOCYTE [3]: 79.33% | MEAN CORPUSCULAR HEMOGLOBIN [3]: 20.33 pg | MEAN CORPUSCULAR HEMOGLOBIN CONCENTRATION [3]: 33.6 G/DL | MEAN CORPUSCULAR VOLUME [3]: 60.5 fL | MONOCYTE [3]: 2.67% | NEUTROPHIL [3]: 16.67% | PLATELET COUNT [3]: 1107 x10E3/uL | ALANINE AMINOTRANSFERASE [3]: 85.33 u/L | ALBUMIN [3]: 4.53 G/DL | ALKALINE PHOSPHATASE [3]: 481.33 u/L | ASPARTATE AMINOTRANSFERASE [3]: 92.33 u/L | BLOOD UREA NITROGEN [3]: 14.67 mg/dL | CARBON DIOXIDE [3]: 23 mmol/L | CHLORIDE [3]: 104 MEQ/L | CHOLESTEROL [3]: 65.33 mg/dL | CREATINE PHOSPHOKINASE [3]: 471 u/L | CREATININE [3]: 0.3 mg/dL | GLUCOSE [3]: 140.33 mg/dL | LACTATE DEHYDROGENASE [3]: 332.33 u/L | LIPASE [3]: 9.33 u/L | PHOSPHORUS [3]: 8.43 mg/dL | POTASSIUM [3]: 5.33 MEQ/L | SODIUM [3]: 146 MEQ/L | TOTAL BILIRUBIN [3]: 0.1 mg/dL | TOTAL PROTEIN [3]: 6 G/DL | URIC ACID [3]: 0.97 mg/dL | BASOPHIL [4]: 0% | EOSINOPHIL [4]: 1% | ERYTHROCYTE COUNT [4]: 6.94 x10E6/uL | HEMATOCRIT [4]: 42.1% | HEMOGLOBIN [4]: 13.63 G/DL | LEUKOCYTE COUNT [4]: 9.2 x10E3/uL | LYMPHOCYTE [4]: 81% | MEAN CORPUSCULAR HEMOGLOBIN [4]: 19.63 pg | MEAN CORPUSCULAR HEMOGLOBIN CONCENTRATION [4]: 32.4 G/DL | MEAN CORPUSCULAR VOLUME [4]: 60.63 fL | MONOCYTE [4]: 2.33% | NEUTROPHIL [4]: 16% | PLATELET COUNT [4]: 801.33 x10E3/uL | ALANINE AMINOTRANSFERASE [4]: 58 u/L | ALBUMIN [4]: 4.3 G/DL | ALKALINE PHOSPHATASE [4]: 406.67 u/L | ASPARTATE AMINOTRANSFERASE [4]: 77.33 u/L | BLOOD UREA NITROGEN [4]: 16 mg/dL | CARBON DIOXIDE [4]: 25 mmol/L | CHLORIDE [4]: 99.33 MEQ/L | CHOLESTEROL [4]: 64.33 mg/dL | CREATINE PHOSPHOKINASE [4]: 451.67 u/L | CREATININE [4]: 0.3 mg/dL | GLUCOSE [4]: 149 mg/dL | LACTATE DEHYDROGENASE [4]: 118.67 u/L | LIPASE [4]: 8.67 u/L | PHOSPHORUS [4]: 9.07 mg/dL | POTASSIUM [4]: 5.67 MEQ/L | SODIUM [4]: 138 MEQ/L | TOTAL BILIRUBIN [4]: 0.1 mg/dL | TOTAL PROTEIN [4]: 5.77 G/DL | URIC ACID [4]: 1.1 mg/dL
